Assay results published in ChEMBL document CHEMBL1201862, “PubChem BioAssay data set” (2004).
The source made the active and inactive calls.

Assays:
[1] = Counterscreen for AddAB inhibitors: absorbance-based bacterial cell-based high throughput dose response assay for inhibitors of bacterial viability. [Related pubchem assays (depositor defined):AID435030, AID449728, AID449731, AID488942, AID488955, AID488956]; format: functional
Exodeoxyribonuclease V = Exodeoxyribonuclease V (Escherichia coli (strain K12), UniProt P04993+P07648+P08394); experiment: E. coli RecBCD inhibitors, dose response, counter-screen for AddAB inhibitor project, absorbance, V66 E. coli, mutant T4 phage (AID 492957); format: functional, cell-based, Escherichia coli str. K-12 substr. MG1655
Exodeoxyribonuclease V, sequence (P04993 whole entry): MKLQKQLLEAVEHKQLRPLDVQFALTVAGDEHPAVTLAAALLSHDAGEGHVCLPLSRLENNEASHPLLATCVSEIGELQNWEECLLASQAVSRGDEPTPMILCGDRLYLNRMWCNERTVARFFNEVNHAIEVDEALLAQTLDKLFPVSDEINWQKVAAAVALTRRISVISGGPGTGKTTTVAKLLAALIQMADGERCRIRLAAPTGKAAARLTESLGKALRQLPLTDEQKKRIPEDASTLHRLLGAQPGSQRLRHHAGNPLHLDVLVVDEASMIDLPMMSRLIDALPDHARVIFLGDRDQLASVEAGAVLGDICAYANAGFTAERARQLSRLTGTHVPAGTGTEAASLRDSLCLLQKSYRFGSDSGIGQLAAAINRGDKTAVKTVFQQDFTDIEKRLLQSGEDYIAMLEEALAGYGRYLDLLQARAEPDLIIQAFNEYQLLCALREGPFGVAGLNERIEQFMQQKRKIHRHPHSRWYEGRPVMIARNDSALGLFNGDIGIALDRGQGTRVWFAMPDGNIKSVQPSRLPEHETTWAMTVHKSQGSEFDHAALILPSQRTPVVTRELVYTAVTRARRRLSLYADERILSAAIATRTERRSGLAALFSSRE
Exodeoxyribonuclease V, sequence (P07648 whole entry): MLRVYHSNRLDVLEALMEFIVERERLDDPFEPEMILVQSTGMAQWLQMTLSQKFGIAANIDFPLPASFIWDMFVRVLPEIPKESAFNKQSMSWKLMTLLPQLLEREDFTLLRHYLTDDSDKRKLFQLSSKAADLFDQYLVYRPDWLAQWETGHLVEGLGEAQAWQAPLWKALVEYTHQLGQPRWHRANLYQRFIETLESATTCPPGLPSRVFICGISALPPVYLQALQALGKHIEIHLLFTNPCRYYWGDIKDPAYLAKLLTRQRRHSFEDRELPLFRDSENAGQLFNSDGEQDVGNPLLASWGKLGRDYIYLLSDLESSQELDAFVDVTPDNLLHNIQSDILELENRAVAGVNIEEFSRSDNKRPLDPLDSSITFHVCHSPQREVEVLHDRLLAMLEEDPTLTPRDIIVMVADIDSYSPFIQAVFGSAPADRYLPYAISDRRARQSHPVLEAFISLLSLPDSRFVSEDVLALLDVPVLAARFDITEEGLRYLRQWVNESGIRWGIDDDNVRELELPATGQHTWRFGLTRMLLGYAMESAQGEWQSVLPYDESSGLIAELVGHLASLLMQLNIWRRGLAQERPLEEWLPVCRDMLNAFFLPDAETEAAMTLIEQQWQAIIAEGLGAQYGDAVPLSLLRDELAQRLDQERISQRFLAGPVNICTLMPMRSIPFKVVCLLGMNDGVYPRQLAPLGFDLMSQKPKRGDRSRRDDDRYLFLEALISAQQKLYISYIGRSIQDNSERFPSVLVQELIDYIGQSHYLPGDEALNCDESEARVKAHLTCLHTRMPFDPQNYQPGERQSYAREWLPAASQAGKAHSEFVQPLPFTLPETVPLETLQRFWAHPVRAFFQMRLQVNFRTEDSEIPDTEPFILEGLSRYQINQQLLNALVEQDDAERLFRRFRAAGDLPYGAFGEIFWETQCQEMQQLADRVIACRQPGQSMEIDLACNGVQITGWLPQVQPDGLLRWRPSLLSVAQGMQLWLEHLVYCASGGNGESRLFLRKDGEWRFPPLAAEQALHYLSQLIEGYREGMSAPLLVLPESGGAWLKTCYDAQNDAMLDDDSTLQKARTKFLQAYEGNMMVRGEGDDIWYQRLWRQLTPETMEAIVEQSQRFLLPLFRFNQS
Exodeoxyribonuclease V, sequence (P08394 whole entry): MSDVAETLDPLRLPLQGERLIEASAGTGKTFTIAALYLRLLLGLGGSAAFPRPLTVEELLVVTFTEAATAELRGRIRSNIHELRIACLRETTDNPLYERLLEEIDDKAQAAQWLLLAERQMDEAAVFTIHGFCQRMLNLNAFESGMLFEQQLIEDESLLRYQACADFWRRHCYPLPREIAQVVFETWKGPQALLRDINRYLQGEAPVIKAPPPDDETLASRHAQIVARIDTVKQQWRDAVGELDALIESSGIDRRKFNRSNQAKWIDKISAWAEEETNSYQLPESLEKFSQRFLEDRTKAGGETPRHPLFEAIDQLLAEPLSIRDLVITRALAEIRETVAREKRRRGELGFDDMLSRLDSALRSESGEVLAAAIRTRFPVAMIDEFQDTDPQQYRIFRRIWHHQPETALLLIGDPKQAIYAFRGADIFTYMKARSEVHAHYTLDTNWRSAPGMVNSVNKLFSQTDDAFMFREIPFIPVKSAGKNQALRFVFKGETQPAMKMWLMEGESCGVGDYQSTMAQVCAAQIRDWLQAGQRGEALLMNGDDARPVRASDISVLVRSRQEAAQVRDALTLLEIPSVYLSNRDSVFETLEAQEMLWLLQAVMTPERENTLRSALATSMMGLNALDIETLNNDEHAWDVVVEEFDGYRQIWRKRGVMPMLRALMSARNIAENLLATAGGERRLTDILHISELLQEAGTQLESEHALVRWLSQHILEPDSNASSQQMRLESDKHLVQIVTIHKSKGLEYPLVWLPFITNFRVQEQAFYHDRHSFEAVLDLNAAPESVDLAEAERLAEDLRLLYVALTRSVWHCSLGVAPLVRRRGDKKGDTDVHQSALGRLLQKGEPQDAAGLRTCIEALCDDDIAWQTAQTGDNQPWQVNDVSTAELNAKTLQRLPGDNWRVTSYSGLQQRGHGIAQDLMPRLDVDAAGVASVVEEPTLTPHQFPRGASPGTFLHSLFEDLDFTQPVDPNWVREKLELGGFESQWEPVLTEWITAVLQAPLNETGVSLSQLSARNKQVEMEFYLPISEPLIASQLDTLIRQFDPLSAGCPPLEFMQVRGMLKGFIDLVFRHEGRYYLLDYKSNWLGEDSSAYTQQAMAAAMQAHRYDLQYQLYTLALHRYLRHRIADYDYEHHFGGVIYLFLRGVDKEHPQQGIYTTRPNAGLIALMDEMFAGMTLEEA

[2] = molecular target: Heat shock protein HSP 90-alpha (Homo sapiens, UniProt P07900); format: functional, organism-based
[3] = cytotoxicity toward NIH3T3 fibroblasts, dose response, counter-screen, cell-based, ATP luminescence, mouse fibroblasts (AID 2010); format: functional;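 further: cells exposed to compound for about 90 hours before reading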
[4] = molecular target: Nucleotide-binding oligomerization domain-containing protein 2 (Homo sapiens, UniProt Q9HC29); experiment: NOD2 signaling inhibitors, cell-based, luminescence, uHTS, HEK293 (AID 1566); format: functional
Nucleotide-binding oligomerization domain-containing protein 2, sequence (Q9HC29 whole entry, the tested form may be a part): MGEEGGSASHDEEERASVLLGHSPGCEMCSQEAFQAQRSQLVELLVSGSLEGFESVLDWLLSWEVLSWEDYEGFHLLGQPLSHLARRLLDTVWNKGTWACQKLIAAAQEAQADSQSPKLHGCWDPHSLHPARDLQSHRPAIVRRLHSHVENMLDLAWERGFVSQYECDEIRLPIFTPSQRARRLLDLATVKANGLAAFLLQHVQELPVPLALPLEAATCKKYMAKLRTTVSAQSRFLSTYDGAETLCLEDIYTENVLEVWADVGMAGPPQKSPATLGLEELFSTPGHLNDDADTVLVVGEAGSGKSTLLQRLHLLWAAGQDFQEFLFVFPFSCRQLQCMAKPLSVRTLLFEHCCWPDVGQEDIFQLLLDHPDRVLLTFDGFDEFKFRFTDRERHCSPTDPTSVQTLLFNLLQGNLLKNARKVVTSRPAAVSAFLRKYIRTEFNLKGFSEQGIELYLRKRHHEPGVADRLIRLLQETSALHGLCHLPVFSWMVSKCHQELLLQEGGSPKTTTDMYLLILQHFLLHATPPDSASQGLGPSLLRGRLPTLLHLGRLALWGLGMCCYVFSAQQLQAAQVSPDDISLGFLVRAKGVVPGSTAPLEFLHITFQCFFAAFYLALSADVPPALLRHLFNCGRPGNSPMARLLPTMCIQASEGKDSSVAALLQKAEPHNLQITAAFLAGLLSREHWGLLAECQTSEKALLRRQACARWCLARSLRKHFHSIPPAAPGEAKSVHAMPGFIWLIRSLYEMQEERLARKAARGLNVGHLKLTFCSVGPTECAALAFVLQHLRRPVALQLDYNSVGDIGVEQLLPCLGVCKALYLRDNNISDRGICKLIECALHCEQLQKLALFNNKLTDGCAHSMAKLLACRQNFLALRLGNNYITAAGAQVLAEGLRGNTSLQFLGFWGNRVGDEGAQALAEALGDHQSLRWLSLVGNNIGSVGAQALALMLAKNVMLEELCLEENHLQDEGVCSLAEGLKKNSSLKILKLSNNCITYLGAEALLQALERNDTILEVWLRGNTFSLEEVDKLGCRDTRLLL

[5] = C. albicans growth with fluconazole, confirmation, fluorescence, retest (AID 2467); format: functional, cell-based
HEK293 [6] = experiment: NOD1 signaling inhibitors, primary screen, cell-based, luminescence, uHTS (AID 1578); format: functional; details: Homo sapiens
HEK293 [7] = experiment: cells; format: functional, cell-based; details: Homo sapiens
[8] = HepG2 cell cytotoxicity, dose response, cytotoxicity control for Shn3 inhibitor project, CellTiter-Glo, cherry-picked (AID 624134); format: functional, cell-based
[9] = NIH-3T3 fibroblast cytotoxicity, dose response, cytotoxicity control, cell-based, fluorescence, Alamar Blue, secondary assay (AID 2327); format: functional;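 further: NIH-3T3 mouse fibroblasts cultured with fluconazole at 8 µg/mL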
[10] = molecular target: T1, Heat shock factor protein 1 (Mus musculus, UniProt P38532); experiment: HSF1 potentiators in luciferase reporter cells, confirmation, cell-based, NIH3T3, luminescence, dose retest (AID 435004); format: functional;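 further: stress induced by proteasome inhibitor MG132 added 30 min after compound; luciferase reporter driven by HSF1 response element in NIH3T3 cells; actives raise luminescence as potentiators of the MG132 stress response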
T1 sequence (P38532 whole entry): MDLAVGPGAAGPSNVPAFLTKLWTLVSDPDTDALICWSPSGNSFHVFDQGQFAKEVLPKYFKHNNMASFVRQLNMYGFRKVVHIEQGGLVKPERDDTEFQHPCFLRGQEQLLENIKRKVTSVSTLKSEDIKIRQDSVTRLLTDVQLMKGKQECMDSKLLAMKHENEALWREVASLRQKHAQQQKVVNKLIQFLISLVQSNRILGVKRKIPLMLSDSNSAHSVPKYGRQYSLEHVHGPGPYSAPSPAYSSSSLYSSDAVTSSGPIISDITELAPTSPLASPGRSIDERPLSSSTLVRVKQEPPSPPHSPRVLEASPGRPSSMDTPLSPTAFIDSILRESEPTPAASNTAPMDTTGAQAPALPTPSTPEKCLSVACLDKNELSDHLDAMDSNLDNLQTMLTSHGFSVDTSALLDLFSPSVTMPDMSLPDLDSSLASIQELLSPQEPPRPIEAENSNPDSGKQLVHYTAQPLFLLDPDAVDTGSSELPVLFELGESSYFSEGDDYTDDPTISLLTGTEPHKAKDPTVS

[11] = non-specific cell cytotoxicity, dose response, cytotoxicity control for PAX8 inhibitor project, plate reader, dry powder samples (AID 743021); format: functional, cell-based
HEK293 [12] = experiment: cells; format: functional, cell-based; details: Homo sapiens; remark: listed apart in the source
HEK293 [13] = experiment: NOD2 signaling inhibitors in MDP-stimulated cells, cell-based, uHTS, luminescence (AID 2001); format: functional; details: Homo sapiens
[14] = inhibitors of intracellular T. cruzi replication, confirmation, NIH3T3 host cells, beta-gal luminescence (AID 2044); format: functional, cell-based;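 further: intracellular parasites grown in NIH/3T3 mouse fibroblasts as host cells; luminescent beta-galactosidase reporter signal from transgenic T. cruzi replicating inside host cells; inhibitors lower the luminescence signal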
HEK293 [15] = experiment: cells; format: functional, cell-based; details: Homo sapiens; remark: listed apart in the source
[16] = control 3'UTR Renilla luciferase suppression, dose response, counter-screen for Shn3 inhibitor project, cell-based, Clone20-Shn3RL, cherry-picked (AID 624133); format: functional
[17] = Shn3 3'UTR reporter inhibitors, dose response, cell-based, Clone20 osteoblasts, firefly luciferase, cherry-picked (AID 624132); format: functional;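 further: firefly luciferase luminescence from reporter carrying the Shn3 3'UTR in osteoblasts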

O=C1c2ccccc2NC(c2ccc(-c3ccc(C(F)(F)F)cc3)o2)N1O (stereo not drawn)
IC50 [1]: > 119 µM (inactive) | IC50 (Exodeoxyribonuclease V): > 119 µM (inactive) | AC50 [2]: 7.23 µM (active)

O=[N+]([O-])c1cccnc1S(=O)(=O)c1ccccc1
EC50 [3]: 4.16 µM (active) | EC50 [4]: > 20 µM (inactive) | EC50 [5]: 2.63 µM (active) | EC50 (HEK293 [6]): 12.4 µM (active) | IC50 (HEK293 [7]): 11.6 µM (active) | AC50 [8]: 51 µM (active) | EC50 [9]: 4.24 µM (inconclusive) | EC50 [10]: 11.9 µM (active) | AC50 [11]: 24.2 µM (active) | IC50 (HEK293 [12]): 2.38 µM (active) | IC50 (HEK293 [13]): 4.56 µM (active) | EC50 [14]: 3.71 µM (active) | IC50 (HEK293 [15]): > 20 µM (inactive) | AC50 [16]: 5.79 µM (active) | AC50 [17]: 4.79 µM (active)
